In US20060235046A1, “Use of an epidermal growth factor receptor kinase inhibitor (EGFR) in gefitinib resistant patients” (Wyeth, priority 2005, published 2006):

How the values were obtained:
[1] = system: non-small cell lung cancer (NSCLC); assay: Report on 2 patients with non-small cell lung cancer (NSCLC) who received EKB-569 after gefitinib and recurrence; assay type: in vivo, human; details: two patients (Exon 19 del E746-A750, 25 mg/day for 9 months; Exon 21 L858R, 35 mg/day for 4 months) after treatment with gefitinib and recurrence of NSCLC
Protocol: Report on 2 Patients with Non-Small Cell Lung Cancer (NSCLC) Who Received EKB-569.
A person with a smoking history BI 720 […] having adenocarcinoma and cT0NOM1 (multiple pulmonary metastasis). Exon 19 deletion E746-A750 is identified. Herception test score was 0+ and EGFR score 2+. The patient was given 25 mg/day EKB-569 for 9 months.
A person with a smoking history of BI 30 (10×3 years) having adenocarcinoma performance status 1, cT0N3M1 (pulmonary, brain and bone). Exon 21 point mutation L858R. HercepTest score +, EGFR score 3+, EKB-569 35 mg/day for 4 months.
Phase 1 dose-escalation study of EKB-569 was completed in Japanese patients with advanced-stage malignancies known to overexpress EGFR.

[2] = system: NSCLC; details: in some cases; re-treatment when NSCLC recurs in patients treated with gefitinib; cited from earlier work

For `CCOc1cc2ncc(C#N)c(Nc3ccc(F)c(Cl)c3)c2cc1NC(=O)C=CCN(C)C` [EKB-569, 4-dimethylamino-but-2-enoic acid [4-(3-chloro-4-fluoro-phenylamino)-3-cyano-7-ethoxy-quinolin-6-yl]-amide], which “clinical effectiveness in NSCLC patients” value [1] is on record?
Its value is “effective”.

For `COc1cc2ncnc(Nc3ccc(F)c(Cl)c3)c2cc1OCCCN1CCOCC1` [gefitinib], which “effectiveness of re-treatment in recurrent NSCLC” value [2] is on record?
The value was “effective”.
